Values quoted from earlier work, collected in patent publication US20030225101A1 (priority 2002, published 2003).

Tests used:
[1] = oral administration
[2] = system: isolated corpus cavernosum

absolute bioavailability [1]: about 40%
SMILES: CCCc1nn(C)c2c(=O)[nH]c(-c3cc(S(=O)(=O)N4CCN(C)CC4)ccc3OCC)nc12 [sildenafil, 1-[4-ethoxy-3-(6,7-dihydro-1-methyl-7-oxo-3-propyl-1H-pyrazolo[4,3-d]pyrimidin-5-yl)phenylsulphonyl]-4-methylpiperazine]
direct relaxant effect on isolated corpus cavernosum [2]: no direct relaxant effect
